Experimental data as given in paper doi:10.1101/2022.12.30.522309v1 (biorxiv, 2022).

Target: T1, human FFA2R (Homo sapiens, UniProt O15552)
T1 sequence (O15552 1-330): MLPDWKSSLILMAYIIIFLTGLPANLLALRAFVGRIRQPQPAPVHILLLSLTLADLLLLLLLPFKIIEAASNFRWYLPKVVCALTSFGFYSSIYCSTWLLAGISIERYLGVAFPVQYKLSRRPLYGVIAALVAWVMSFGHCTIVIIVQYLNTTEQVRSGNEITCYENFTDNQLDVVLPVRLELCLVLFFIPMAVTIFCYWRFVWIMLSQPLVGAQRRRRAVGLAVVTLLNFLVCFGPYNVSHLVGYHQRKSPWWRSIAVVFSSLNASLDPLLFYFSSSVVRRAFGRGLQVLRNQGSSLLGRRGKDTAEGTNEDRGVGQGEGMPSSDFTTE
Test: inhibition of forskolin-induced cAMP, LANCE Ultra TR-FRET, HEK293
Assay type: cell-based

CC(=O)CC(=O)O [acetoacetate]
EC50: 1240 µM
